According to PubChem BioAssay (NCI):
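Exposure lasted 48 hours, with cells grown in 96-well plates and compounds tested at five concentrations. At the GI50, growth is halved. TGI marks complete inhibition of growth.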

How the values were obtained:
Experiment in all cases: NCI tumour cell line growth inhibition, 48 h
HCT-116 colon = tested on: HCT-116 colon
HS 578T breast = tested on: HS 578T breast
MALME-3M melanoma = tested on: MALME-3M melanoma
NCI-H460 lung = tested on: NCI-H460 lung
RPMI-8226 leukemia = tested on: RPMI-8226 leukemia
RXF 393 renal = tested on: RXF 393 renal
SK-MEL-5 melanoma = tested on: SK-MEL-5 melanoma
SN12C renal = tested on: SN12C renal
SNB-19 CNS = tested on: SNB-19 CNS
SR leukemia = tested on: SR leukemia

SMILES: CC(=O)c1cc2c(Br)cccc2oc1=O
- TGI (HCT-116 colon): > 100 µM
- TGI (HS 578T breast): > 100 µM
- TGI (MALME-3M melanoma): > 100 µM
- TGI (NCI-H460 lung): > 100 µM
- TGI (RPMI-8226 leukemia): > 100 µM
- TGI (RXF 393 renal): > 100 µM
- TGI (SK-MEL-5 melanoma): > 100 µM
- TGI (SN12C renal): > 100 µM
- TGI (SNB-19 CNS): > 100 µM
- TGI (SR leukemia): > 100 µM

SMILES: COc1ccc(-c2nc(NC(=O)CS(=O)(=O)c3ccc(F)cc3)sc2C)cc1
- GI50 (HCT-116 colon): 17.5 µM
- TGI (HCT-116 colon): 38.7 µM
- GI50 (HS 578T breast): 14.8 µM
- TGI (HS 578T breast): 63.3 µM
- GI50 (MALME-3M melanoma): 23 µM
- TGI (MALME-3M melanoma): 66.4 µM
- GI50 (NCI-H460 lung): 20.1 µM
- TGI (NCI-H460 lung): 51.5 µM
- GI50 (RPMI-8226 leukemia): 17.6 µM
- TGI (RPMI-8226 leukemia): 56.5 µM
- GI50 (RXF 393 renal): 15.6 µM
- TGI (RXF 393 renal): 49.7 µM
- GI50 (SK-MEL-5 melanoma): 12.8 µM
- TGI (SK-MEL-5 melanoma): 25.9 µM
- GI50 (SN12C renal): 19 µM
- TGI (SN12C renal): 52.5 µM
- GI50 (SNB-19 CNS): 33.4 µM
- TGI (SNB-19 CNS): > 100 µM
- GI50 (SR leukemia): 4.32 µM
- TGI (SR leukemia): 46.1 µM

SMILES: Nc1c(C(=O)c2cccc(-c3cccnc3)c2)cnn1-c1ccc(F)cc1
- GI50 (HCT-116 colon): > 25 µM
- TGI (HCT-116 colon): > 25 µM
- GI50 (HS 578T breast): > 25 µM
- TGI (HS 578T breast): > 25 µM
- GI50 (MALME-3M melanoma): > 25 µM
- TGI (MALME-3M melanoma): > 25 µM
- GI50 (NCI-H460 lung): > 25 µM
- TGI (NCI-H460 lung): > 25 µM
- GI50 (RPMI-8226 leukemia): > 25 µM
- TGI (RPMI-8226 leukemia): > 25 µM
- GI50 (RXF 393 renal): > 18.3 µM
- TGI (RXF 393 renal): > 25 µM
- GI50 (SK-MEL-5 melanoma): > 25 µM
- TGI (SK-MEL-5 melanoma): > 25 µM
- GI50 (SN12C renal): > 25 µM
- TGI (SN12C renal): > 25 µM
- GI50 (SNB-19 CNS): > 25 µM
- TGI (SNB-19 CNS): > 25 µM
- GI50 (SR leukemia): > 25 µM
- TGI (SR leukemia): > 25 µM

SMILES: COC(=O)c1csc(-c2csc(CCNC(=O)OC(C)(C)C)n2)n1
- TGI (HCT-116 colon): > 100 µM
- TGI (HS 578T breast): > 100 µM
- TGI (MALME-3M melanoma): > 100 µM
- TGI (NCI-H460 lung): > 100 µM
- TGI (RPMI-8226 leukemia): > 100 µM
- TGI (RXF 393 renal): > 100 µM
- TGI (SK-MEL-5 melanoma): > 100 µM
- TGI (SN12C renal): > 100 µM
- TGI (SNB-19 CNS): > 100 µM
- TGI (SR leukemia): > 100 µM

SMILES: CC(C)(C)OC(=O)N(CCCCN(CCCn1c2c(c3ccccc3c1=O)C(=O)c1ccccc1-2)C(=O)OC(C)(C)C)CCCn1c2c(c3ccccc3c1=O)C(=O)c1ccccc1-2
- GI50 (HCT-116 colon): 1.9 µM
- TGI (HCT-116 colon): > 100 µM
- GI50 (HS 578T breast): 13.1 µM
- TGI (HS 578T breast): 59.6 µM
- GI50 (MALME-3M melanoma): > 100 µM
- TGI (MALME-3M melanoma): > 100 µM
- GI50 (NCI-H460 lung): 6.32 µM
- TGI (NCI-H460 lung): 19.3 µM
- GI50 (RPMI-8226 leukemia): 17.9 µM
- TGI (RPMI-8226 leukemia): 69.1 µM
- GI50 (SK-MEL-5 melanoma): 48.5 µM
- TGI (SK-MEL-5 melanoma): > 100 µM
- GI50 (SN12C renal): 36 µM
- TGI (SN12C renal): > 100 µM
- GI50 (SNB-19 CNS): 72 µM
- TGI (SNB-19 CNS): > 100 µM
- GI50 (SR leukemia): 0.304 µM
- TGI (SR leukemia): > 100 µM

SMILES: O=[N+]([O-])c1ccccc1/C=N\NC(=S)N/N=C/c1ccccc1[N+](=O)[O-]
- GI50 (HCT-116 colon): 3.78 µM
- TGI (HCT-116 colon): > 100 µM
- GI50 (HS 578T breast): 3.61 µM
- TGI (HS 578T breast): 33.6 µM
- GI50 (NCI-H460 lung): 3.64 µM
- TGI (NCI-H460 lung): > 100 µM
- GI50 (RPMI-8226 leukemia): 5.91 µM
- TGI (RPMI-8226 leukemia): > 100 µM
- GI50 (RXF 393 renal): 11.6 µM
- TGI (RXF 393 renal): > 100 µM
- GI50 (SK-MEL-5 melanoma): 4.21 µM
- TGI (SK-MEL-5 melanoma): > 100 µM
- GI50 (SN12C renal): 10.6 µM
- TGI (SN12C renal): > 100 µM
- GI50 (SNB-19 CNS): 6.71 µM
- TGI (SNB-19 CNS): > 100 µM
- GI50 (SR leukemia): 2.87 µM
- TGI (SR leukemia): > 100 µM

SMILES: CN(c1cccc(C(=O)O)c1)c1cc(O/N=[N+](\[O-])N(C)C)c([N+](=O)[O-])cc1[N+](=O)[O-]
- GI50 (HCT-116 colon): > 100 µM
- TGI (HCT-116 colon): > 100 µM
- GI50 (HS 578T breast): > 100 µM
- TGI (HS 578T breast): > 100 µM
- GI50 (NCI-H460 lung): > 100 µM
- TGI (NCI-H460 lung): > 100 µM
- GI50 (RPMI-8226 leukemia): > 100 µM
- TGI (RPMI-8226 leukemia): > 100 µM
- GI50 (RXF 393 renal): > 100 µM
- TGI (RXF 393 renal): > 100 µM
- GI50 (SK-MEL-5 melanoma): > 100 µM
- TGI (SK-MEL-5 melanoma): > 100 µM
- GI50 (SN12C renal): > 100 µM
- TGI (SN12C renal): > 100 µM
- GI50 (SNB-19 CNS): > 100 µM
- TGI (SNB-19 CNS): > 100 µM
- GI50 (SR leukemia): 56.4 µM
- TGI (SR leukemia): > 100 µM

SMILES: Nc1n[n+]([O-])c2ccc(Cl)cc2[n+]1[O-]
- TGI (HCT-116 colon): > 100 µM
- TGI (HS 578T breast): > 100 µM
- TGI (MALME-3M melanoma): 59 µM
- TGI (RPMI-8226 leukemia): > 100 µM
- TGI (RXF 393 renal): 54.1 µM
- TGI (SK-MEL-5 melanoma): 16.5 µM
- TGI (SN12C renal): > 100 µM
- TGI (SNB-19 CNS): > 100 µM
- TGI (SR leukemia): > 100 µM

SMILES: N[C@H]1CCC[C@@H](O)C1O (some centres undefined)
- TGI (HCT-116 colon): > 100 µM
- TGI (HS 578T breast): > 100 µM
- TGI (MALME-3M melanoma): > 100 µM
- TGI (NCI-H460 lung): > 100 µM
- TGI (RPMI-8226 leukemia): > 100 µM
- TGI (SK-MEL-5 melanoma): > 100 µM
- TGI (SN12C renal): > 100 µM
- TGI (SNB-19 CNS): > 100 µM
- TGI (SR leukemia): > 100 µM

SMILES: COc1ccc([N+](=O)[O-])c2c(NCCCN(C)C)c(C)c(C)nc12
- TGI (HCT-116 colon): > 100 µM
- TGI (HS 578T breast): > 100 µM
- TGI (MALME-3M melanoma): > 100 µM
- TGI (NCI-H460 lung): > 100 µM
- TGI (RPMI-8226 leukemia): > 100 µM
- TGI (SK-MEL-5 melanoma): > 100 µM
- TGI (SN12C renal): > 100 µM
- TGI (SNB-19 CNS): > 100 µM
- TGI (SR leukemia): 56.6 µM

SMILES: O=C(Nc1cc(Cl)c(I)c(Cl)c1)C(F)(F)F
- TGI (HCT-116 colon): 71.2 µM
- TGI (HS 578T breast): 75.7 µM
- TGI (NCI-H460 lung): > 100 µM
- TGI (RPMI-8226 leukemia): > 100 µM
- TGI (RXF 393 renal): 34.5 µM
- TGI (SK-MEL-5 melanoma): 36.1 µM
- TGI (SN12C renal): > 100 µM
- TGI (SNB-19 CNS): > 100 µM
- TGI (SR leukemia): 99.5 µM

SMILES: C=C1C(=O)OC2CC1C(OC(=O)/C=C/c1ccccc1)C/C(C)=C/CC/C(C)=C/CCC2(C)O (centres undefined)
- TGI (HCT-116 colon): 2.38 µM
- TGI (HS 578T breast): 5.94 µM
- TGI (MALME-3M melanoma): 4.02 µM
- TGI (NCI-H460 lung): 2.74 µM
- TGI (RXF 393 renal): 2.72 µM
- TGI (SK-MEL-5 melanoma): 3.68 µM
- TGI (SN12C renal): 3.04 µM
- TGI (SNB-19 CNS): 3.51 µM
- TGI (SR leukemia): > 21.6 µM
